Assay results from US20260055061A1, “HALOPHTHALIMIDE COMPOUNDS AND METHODS OF USE AGAINST TBI, INFLAMMATORY DISORDER, AUTOIMMUNE DISORDER, NEURODEGENERATIVE DISEASE OR VIRAL INFECTION” (The United States of America, as represented by the …, priority 2022, published 2026).

Columns and labels:
Ikaros = Ikaros (Homo sapiens (Human), UniProt Q13422); test: Ikaros degradation in MM1.S cells (Western blot); format: cell-based; conditions: 1 μM, relative to GAPDH
Procedure: (§1) For Western blot analysis, total proteins were extracted using RIPA buffer (ThermoFisher Scientific, Waltham, MA) containing Halt Protease Inhibitor Cocktail (ThermoFisher Scientific). […] After incubation at 4° C. overnight, the following HRP conjugated secondary antibodies were used: (i) goat anti-rabbit IgG (ThermoFisher Scientific) for ikaros and aiolos, and (ii) goat anti-mouse IgG (ThermoFisher Scientific) for SALL4 and GAPDH. […] Antigen-antibody complexes were detected using enhanced chemiluminescence (Thermo, iBright CL1500).
(§2) Specifically, MM1.S cells were obtained from ATCC (Manassas, VA, USA), grown in RPMI media supplemented with 10% FBS, penicillin 100 U/mL, and streptomycin […], and maintained at 37° C. and 5% CO2.
(§3) For Western blot analysis, total proteins were extracted using RIPA buffer (ThermoFisher Scientific, Waltham, MA, USA) containing Halt Protease Inhibitor Cocktail (ThermoFisher Scientific). Thereafter, the proteins were separated by gel electrophoresis and then transferred to polyvinylidene difluoride (PVDF) membranes (ThermoFisher Scientific), as described previously. […] Antigen-antibody complexes were detected using enhanced chemiluminescence (ThermoFisher Scientific, iBright CL1500).

CCI-induced TBI mice = test: CCI mouse model of TBI: DigiGait gait analysis; format: in vivo
Procedure: In vivo model of TBI: Mice were anesthetized with 2.5% tribromoethanol (Avertin: 250 mg/kg; Sigma, St. Louis, MO, USA) and placed in a stereotaxic frame (Kopf Instruments, Tujunga, CA, USA). A 4 mm craniotomy was performed using sterile procedures; the craniotomy point was selected midway between the lambda and bregma sutures and laterally midway between the central suture and the temporalis muscle. The skull fragment was then carefully removed without disruption of the underlying dura. Prior to injury induction, the tip of the impactor was angled and kept perpendicular to the exposed cortical surface. The mouse CCI instrument consisted of an electromagnetic impactor, Impact One (Leica Biosystems Inc., Buffalo Grove, IL, USA) that allows independent alteration of injury severity by controlling contact velocity and the level of cortical deformation. In these experiments, the contact velocity was set at 5.0 m/sec, the dwell time was set at 0.2 s and the deformation depth was set at 2 mm to produce a moderate TBI. The injury site was allowed to dry prior to suturing the wound. During surgery and recovery, the body temperature of the animals was maintained at 36-37° C. by using a heating pad. […] Mice were randomized following CCI to treatment with either of two doses of TFBP (16.25 mg/kg and 32.5 mg/kg, i.p.) or saline, and were dosed at 1 and 24 hr after the injury.
Behavioral assessment for motor functions and coordination: Behavioral tests were performed 1 week and 2 weeks after injury, to assess changes in motor functions and coordination. All tests were performed during the animals' light phase; cages were transported to testing rooms at least 30 min prior to testing.
Gait analysis: For the gait analysis, mice were tested on a fixed-speed treadmill apparatus (DigiGait; Mouse Specifics). Mice were habituated to the apparatus for 1 min, and then given a 1-min run at 5 cm/s. Following a 1-min rest, the treadmill speed was increased to 15 cm/s. Video was collected at high speed from a ventrally placed camera, and 3-5 s of representative gait video was selected by an experienced but blinded user for automated analysis.
In Vivo Model of TBI: TBI studies were conducted in 8-week-old male C57/BL6 mice (25-30 g; n=20), Jackson Laboratory, Bar Harbor, Maine USA. Mice were randomly assigned to four groups prior surgery, CMC+Sham, CMC+TBI, compound 30 (Low dose (LD), 14.78 mg/kg, prepared in 1% CMC in PBS)+TBI, compound 30 (High dose (HD), 29.57 mg/kg)+TBI, and evaluated the effects of compound 30 on TBI. Mice were assessed for gait function and motor coordination, balance function. Animals were subsequently evaluated for cellular changes using histological and immunohistochemistry staining. […]

Aiolos = Aiolos (Homo sapiens (Human), UniProt Q9UKT9); test: Aiolos degradation in MM1.S cells (Western blot); format: cell-based; conditions: 1 μM, relative to GAPDH
Procedure: as §1, §2, §3

SALL4 = SALL4 (Homo sapiens (Human), UniProt Q9UJQ4); test: SALL4 expression in Tera-1 cells (Western blot); format: cell-based; conditions: human Tera-1 cells; 0.01, 0.1, 1 μM; relative to GAPDH
Procedure: as §1, §2
For Western blot analysis, total proteins were extracted using RIPA buffer (ThermoFisher Scientific, Waltham, MA, USA) containing Halt Protease Inhibitor Cocktail (ThermoFisher Scientific). Thereafter, the proteins were separated by gel electrophoresis and then transferred to polyvinylidene difluoride (PVDF) membranes (ThermoFisher Scientific), as described previously. […] After incubation at 4° C. overnight, the following HRP-conjugated secondary antibodies were used: (i) goat anti-rabbit IgG (ThermoFisher Scientific) for Ikaros and Aiolos, and (ii) goat anti-mouse IgG (ThermoFisher Scientific) for SALL4 and GAPDH. […] Antigen-antibody complexes were detected using enhanced chemiluminescence (ThermoFisher Scientific, iBright CL1500).

[1] = target: cereblon (CRBN/DDB1-CUL4A-Rbx1 complex) / BRD3 (Homo sapiens (Human), UniProt Q96SW2); test: Cereblon/BRD3 binding assay (AlphaScreen / FRET)
Procedure: After 30 min of incubation with shaking at room temperature, AlphaLISA anti-FLAG Acceptor and Alpha Glutathione Donor beads (PerkinElmer) were sequentially added and then incubated for 1 hr at room temperature for each of the added chemicals. Alpha counts were thereafter read on a Synergy Neo2 (BioTek) for the analysis. Relative activity or inhibition was calculated as the highest value, which was set to 100%, and the lowest value was set to 0% after subtraction of the “blank value” from all readings.
After 30 min of incubation with shaking at room temperature, AlphaLISA anti-FLAG Acceptor and Alpha Glutathione Donor beads (PerkinElmer) were sequentially added and then incubated for 1 h at room temperature for each of the added chemicals. Alpha counts were thereafter read on a Synergy Neo2 (BioTek) for the analysis. The relative activity of the alpha signal was calculated after subtraction of the “blank value” from all readings, and the value of the vehicle group was then set as 100%.

SARS-CoV-2 = test: Anti-SARS-CoV-2 activity (FIG. 6); format: cell-based
TNF-α = test: LPS-induced TNF-α production in RAW 264.7 cells (ELISA); format: cell-based, mouse; conditions: LPS-challenged RAW 264.7 cells, percentage of vehicle control value (control = 100%), mean ± S.E.M., n = 3
Procedure: Enzyme-linked immunosorbent assay for TNF-α protein: Media TNF-α levels were measured by use of the Biolegend ELISA MAX Set Delux ELISA (#430904). The protocol used was that recommended by the manufacturer. In brief, a day prior to performing the assay, a 96 well plate was coated with a capture antibody directed against TNF-α. The following day the assay plate was washed and blocked with the kit blocking agent for 1 h while being mixed on a plate shaker at 200 rpm (all incubations were mixed at 200 rpm unless stated otherwise). A TNF-α protein standard curve was prepared in the assay diluent following the kit instructions and unknown media samples were likewise diluted in the same assay diluent. After blocking, the plate was washed and then both the standards and unknown media samples were added to the plate in duplicate. The standards and unknown samples were incubated for 2 h. After the incubation, the plate was washed and then the biotin labeled detection antibody was added to each well and incubated for a further 1 h. After this incubation, the avidin-HRP conjugate complex was added to each well and incubated for 30 min. The plate was washed and the chromogenic substrate 3,3′,5,5′-tetramethylbenzidine solution was added to each well. At this point the plate was covered and incubated in the dark for 15 min, with no mixing. After 15 min the chromogenic reaction was stopped by the addition of 2 N H2SO4 and the absorbance was read at 450 nm and for background subtractions at 570 nm, on a SPECTRAmax PLUS plate reader. The absorbances were used to generate a TNF-α a protein standard curve and the protein levels in the unknown samples were determined using SoftMax Pro V5, Molecular Devices.
(§4) Cells were propagated as described by ATCC guidelines.

[2] = test system: LPS-induced nitrite in RAW 264.7 cells; test: LPS-induced nitrite production in RAW 264.7 cells (Griess reagent / fluorometric kit); format: cell-based, mouse; conditions: LPS-challenged RAW 264.7 cells, percentage of vehicle control value (control = 100%), mean ± S.E.M., n = 3
Procedure: Nitrite ion detection in drug treated […] cell culture media: To measure the levels of nitrite ion NO2—) the Griess Reagent System (Promega, Madison, WI, Cat #G2930) was utilized. The protocol followed was that recommended by the manufacturer. In brief a NO2— ion standard curve was prepared in culture media of the same composition to that used for the cell culture study. The concentration range of the standard curve was from 1.5 µM to 100 µM. Equal volumes (50 μL) of standards and unknown samples were added to clear 96 well plates in duplicate. Then 50 μL of sulfanilamide solution was added to each well and the plate was covered and incubated in the dark for 10 min. After the incubation period 50 μL of N-1-napthylethylenediamine dihydrochloride solution was added to each well and the plate was incubated in dark for a further 10 min. After this incubation, the plate was read at 550 nm on a SPECTRAmax PLUS plate reader and the absorbances were used to generate a NO2— standard curve and the NO2— ion levels of the unknown samples are determined using SoftMax Pro V5, Molecular Devices.
Most neurons are highly vulnerable to RNS and ROS. Nitric oxide (NO) is one of RNSs, which is very short lived and cannot be readily measured. However, nitrite is a stable end product of nitric oxide metabolism. Therefore, nitrite acts as a surrogate measure of NO. The Griess Reagent System (Promega Corporation, Madison, WI) can be applied to measure nitrite levels in culture media following the manufacturer's protocol, and this system was used in the present study as it is a more sensitive assay compared to quantifying actions on TNF-α by ELISA assay. […] This challenge induces high level of TNF-α protein accompanied by a robust generation of nitrite.
as §4

[3] = Cytotoxicity in the anti-SARS-CoV-2 evaluation (FIG. 6); format: cell-based; conditions: 25 μM
RAW 264.7 cells = test: Cell viability of drug treated RAW 264.7 cells (CellTiter 96 AQueous One, MTS); conditions: RAW 264.7 cells, percentage of vehicle control value, mean ± S.E.M., n = 3
Procedure: Assessments of drug anti-TNF-α and nitric oxide generation in RAW 264.7 cells: RAW 264.7 cells were purchased from ATCC Manassas, VA, USA). The cells were grown in DMEM media (Invitrogen, DMEM, high glucose, GlutaMAX Supplement, pyruvate, #10569-010) supplemented with 10% FBS (Invitrogen, Fetal Bovine Serum, qualified, heat inactivated, #16140-071) with penicillin and streptomycin (Invitrogen, Penicillin-Streptomycin (10,000 U/mL), #15140-122) and were maintained at 37 C and 5% CO2. The cells were grown to 75%-85% confluence on 10 cm plates (corning-Fal-con, #353003) following the protocol described by ATTC. to assess for drug effects on LPS-induced markers of inflammation, namely TNF-α protein and nitrite ion levels (NO2, a stable end-product of nitric oxide metabolism) cells were seeded into 24 well (VWR, #10062-896) at a density of 200×10^3 cells per well. On each plate there was one blank well where no cells were added yet culture media in the well was treated similarly to wells with cells (n=1). The blank well media was used for background subtraction for various downstream assays. twenty-four hours after seeding the plate the seeding media was replaced with fresh media. Two hours after this the cells were exposed to a range of concentrations of drug test-compound(s) dissolved in 100% tissue culture grade dimethyl sjloxide (DMSO, SIGMA #D2650). Drug stocks were prepared in a 200 times more concentrated stock in DMSO. The final concentration of DMSO added to the cells was 0.5%. The effects of each concentration of drug were assessed in 4 wells per concentration in the 24 well plate (n=3 #-4). On each plate one set of wells were assigned as drug-vehicle control (i.e. DMSO), one test compound was assessed on one 24 well plate. […] One hour after the drugs were added the cells were challenged with lipopolysaccharide (LPS, SIGMA, serotype 055:B5) at a final concentration of 60 ng/ml. Twenty to twenty-four hours after the cells were challenged with LPS the culture media was collected and utilized for the measurement of markers of inflammation.
Cellular viability assessment of drug treated RAW 264.7 cells: RAW 264.7 cell viability was determined by use of the CellTiter 96 AQueous One Solution Cell Proliferation Assay (Promega, Madison, WI). Changes in cellular health status were determined by use of indirect measures related to the formation of a colored tetrazolium dye product that can be measured spectrophotometrically at 490 nm. An increase in absorbance at 490 nm is indicative of an increase in numbers of healthy cells; similarly a reduction in absorbance is indicative of a reduction of healthy cells. After the culture media was harvested for use in TNF-α and NO2— ion assays, the media was replaced with 0.5 mL of fresh media plus 100 μL of the cell viability reaction mixture. After a 20-30 min incubation at 37° C. with 5% CO2 the absorbance at 490 nm was obtained using an infinite M200 PRO plate reader (TECAN, USA).
Statistical analyses for RAW-derived assays: Data are expressed as a percentage change from the DMSO-vehicle control measurements. Measurements are expressed as mean±standard errors, where the n number represents the number of wells in a 24 well plate. Due to the presence of one blank control well on each plate, for some drug concentrations the n number is 3 # and not 4. Statistical comparisons were undertaken by use of a One-Way ANOVA with appropriate Bonferroni corrections for multiple comparisons, as required (GraphPad InStat Version 3.05). P values of <0.05 are considered to be of statistical significance.
RAW 264.7 cell culture: RAW 264.7 mouse cells were purchased from ATCC (Manassas, VA, USA) and grown in DMEM media supplemented with 10% FCS, penicillin 100 U/ml and streptomycin 100 μg/ml (ThermoFisher Scientific, Asheville, NC, USA). The cells were maintained at 37° C. and 5% CO2.

Chain of cereblon (CRBN/DDB1-CUL4A-Rbx1 complex) / BRD3 (Q96SW2 whole entry): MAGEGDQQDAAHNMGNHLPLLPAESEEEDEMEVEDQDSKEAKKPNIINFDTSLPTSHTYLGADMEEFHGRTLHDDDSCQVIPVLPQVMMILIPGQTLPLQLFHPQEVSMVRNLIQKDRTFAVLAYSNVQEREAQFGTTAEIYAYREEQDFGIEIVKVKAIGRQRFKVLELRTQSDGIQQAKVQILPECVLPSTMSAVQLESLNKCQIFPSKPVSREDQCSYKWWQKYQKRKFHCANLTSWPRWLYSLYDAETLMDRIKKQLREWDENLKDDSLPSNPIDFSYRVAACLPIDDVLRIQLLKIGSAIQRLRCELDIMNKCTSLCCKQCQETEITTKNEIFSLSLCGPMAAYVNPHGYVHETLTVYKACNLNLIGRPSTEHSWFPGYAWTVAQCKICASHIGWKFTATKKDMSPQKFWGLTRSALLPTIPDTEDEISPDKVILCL
Chain of cereblon (CRBN/DDB1-CUL4A-Rbx1 complex) / BRD3 (Q16531 whole entry partner): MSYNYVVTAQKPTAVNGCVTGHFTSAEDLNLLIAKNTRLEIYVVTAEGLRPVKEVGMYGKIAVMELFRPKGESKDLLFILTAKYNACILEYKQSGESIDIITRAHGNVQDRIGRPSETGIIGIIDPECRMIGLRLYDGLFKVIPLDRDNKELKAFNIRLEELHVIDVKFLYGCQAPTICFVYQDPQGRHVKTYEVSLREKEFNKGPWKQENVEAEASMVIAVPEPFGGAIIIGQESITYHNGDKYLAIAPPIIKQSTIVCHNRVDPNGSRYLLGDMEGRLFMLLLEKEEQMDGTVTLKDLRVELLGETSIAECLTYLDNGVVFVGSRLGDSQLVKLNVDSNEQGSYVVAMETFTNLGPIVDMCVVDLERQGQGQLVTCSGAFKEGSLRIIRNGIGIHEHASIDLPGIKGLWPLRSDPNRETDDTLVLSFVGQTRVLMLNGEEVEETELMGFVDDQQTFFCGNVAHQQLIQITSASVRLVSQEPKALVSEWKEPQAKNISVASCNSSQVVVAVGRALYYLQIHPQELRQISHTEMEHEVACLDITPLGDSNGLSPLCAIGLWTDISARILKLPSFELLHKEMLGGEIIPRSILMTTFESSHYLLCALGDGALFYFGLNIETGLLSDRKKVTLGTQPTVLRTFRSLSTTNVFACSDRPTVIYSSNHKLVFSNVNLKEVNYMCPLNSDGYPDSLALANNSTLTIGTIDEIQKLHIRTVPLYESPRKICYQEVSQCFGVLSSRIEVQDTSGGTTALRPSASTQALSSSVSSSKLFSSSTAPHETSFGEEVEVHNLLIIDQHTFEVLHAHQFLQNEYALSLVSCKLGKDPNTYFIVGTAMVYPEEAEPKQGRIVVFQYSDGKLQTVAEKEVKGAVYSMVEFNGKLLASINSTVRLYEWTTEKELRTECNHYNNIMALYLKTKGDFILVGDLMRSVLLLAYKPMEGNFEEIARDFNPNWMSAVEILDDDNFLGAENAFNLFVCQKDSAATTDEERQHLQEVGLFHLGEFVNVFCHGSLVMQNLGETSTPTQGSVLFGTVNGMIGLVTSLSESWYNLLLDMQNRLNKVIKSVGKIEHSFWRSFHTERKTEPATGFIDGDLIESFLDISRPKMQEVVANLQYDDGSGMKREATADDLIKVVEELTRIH
Chain of cereblon (CRBN/DDB1-CUL4A-Rbx1 complex) / BRD3 (Q13619 whole entry partner): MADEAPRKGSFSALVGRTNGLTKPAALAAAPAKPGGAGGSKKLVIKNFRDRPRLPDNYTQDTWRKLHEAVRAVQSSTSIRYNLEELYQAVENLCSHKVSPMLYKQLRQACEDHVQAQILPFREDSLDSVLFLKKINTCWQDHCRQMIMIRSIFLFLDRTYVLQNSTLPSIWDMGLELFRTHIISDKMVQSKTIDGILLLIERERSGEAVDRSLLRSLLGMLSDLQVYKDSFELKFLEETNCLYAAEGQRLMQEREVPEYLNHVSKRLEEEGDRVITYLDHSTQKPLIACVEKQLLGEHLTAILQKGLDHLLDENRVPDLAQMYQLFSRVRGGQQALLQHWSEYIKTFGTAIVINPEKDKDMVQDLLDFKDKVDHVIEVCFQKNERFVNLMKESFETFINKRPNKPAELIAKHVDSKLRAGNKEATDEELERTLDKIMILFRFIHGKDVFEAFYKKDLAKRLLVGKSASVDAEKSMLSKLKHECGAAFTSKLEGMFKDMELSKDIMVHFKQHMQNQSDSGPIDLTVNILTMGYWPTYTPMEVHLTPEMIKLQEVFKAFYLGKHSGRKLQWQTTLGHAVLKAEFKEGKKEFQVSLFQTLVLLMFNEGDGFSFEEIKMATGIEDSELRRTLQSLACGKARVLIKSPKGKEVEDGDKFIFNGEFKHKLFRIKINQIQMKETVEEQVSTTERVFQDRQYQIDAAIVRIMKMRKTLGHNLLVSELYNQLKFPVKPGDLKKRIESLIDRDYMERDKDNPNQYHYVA
Chain of cereblon (CRBN/DDB1-CUL4A-Rbx1 complex) / BRD3 (P62877 whole entry partner): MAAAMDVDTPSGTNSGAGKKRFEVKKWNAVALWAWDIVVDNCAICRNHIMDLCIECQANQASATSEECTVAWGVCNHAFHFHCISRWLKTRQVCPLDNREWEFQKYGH

Compound: 4-amino-7-fluoro-2-(2-oxo-6-thioxopiperidin-3-yl)-3-thioxoisoindolin-1-one [Compound 30]
- Ikaros levels (Ikaros): no significant effect
- gait % of brake phase (CCI-induced TBI mice; high dose 29.57 mg/kg): impairment of brake phase was ameliorated
- gait propel time and % of propel phase (CCI-induced TBI mice; high dose 29.57 mg/kg): significantly mitigate propel time and % of propel phase
- gait brake time (CCI-induced TBI mice; low dose 14.78 mg/kg, 1 and 2 weeks after TBI): significantly mitigated the deficit of brake time
- Aiolos levels (Aiolos): no significant effect
- SALL4 levels (SALL4): no significant effect
- IC50 ([1]; Example 6, FIG. 28A): 2.66 µM
- cereblon binding (in words) ([1]; cereblon/BRD3 binding FRET assay): potently bind to cereblon

Compound: C[C@@H]1[C@@H](N2C(=O)c3c(F)ccc(F)c3C2=O)C[C@H]2C[C@@H]1C2(C)C [Compound 18, 4,7-Difluoro-2-((1S,2S,3S,5R)-2,6,6-trimethylbicyclo[3.1.1]heptan-3-yl) isoindoline-1,3-dione]
- SARS-CoV-2 inhibitory activity (SARS-CoV-2): potent SARS-CoV-2 inhibitory activity
- TNF-α % Δ (TNF-α; 1 μM): 101 ± 5%
- TNF-α % Δ (TNF-α; 10 μM): 89 ± 5%
- nitrite level, % of vehicle control ([2]; 1 μM): 96 ± 4%
- nitrite level, % of vehicle control ([2]; 10 μM): 71 ± 4%
- cytotoxicity [3]: preliminarily acceptable cytotoxicity
- Cell Viability % Δ (RAW 264.7 cells; 1 μM): 102 ± 4%
- Cell Viability % Δ (RAW 264.7 cells; 10 μM): 76 ± 5%
